21 compounds from PMC3045100, “Cell-Penetrating Penta-Peptides (CPP5s): Measurement of Cell Entry and Protein-Transduction Activity” (Pharmaceuticals, 2010) can be followed below.

Residues, ends and D or L forms follow the SMILES beside them. *: point of attachment. 5FAM = O=C1OC2(c3ccc(O)cc3Oc3cc(O)ccc32)c2ccc(C(=O)*)cc21

One series has as its system Jurkat cells. Kind of series: Cell entry in cells lacking caveolin-mediated endocytosis. The format is cell-based. The note with it: cells reported to lack caveolin-mediated endocytotic activity; data not shown. The text has this: Chinese hamster ovary (CHO) A745 cells lack proteoglycans in the plasma membrane, and this cell line has been used to determine whether proteoglycans are required for CPP entry. […] (Figure 3c and d). The cell-penetrating activity of CPP5s was also examined in Jurkat cells that are reported to lack caveolin-mediated endocytotic activity.

Series [1] deals with lysosomes of HeLa cells and DAMI cells. As to the kind of experiment: Co-localization of Fam-VPTLK with lysosomes (LysoTracker red). Format: cell-based. Conditions: Fam-VPTLK 50 μM and LysoTracker 100 nM, 1 h, 37 °C, microscopy. The text has this:
Lysosomes are known to contain molecules which have entered the cell through pinocytosis. To determine whether CPP5s use pinocytotic pathways for their cell entry, the localizations of Fam-labeled CPP5s and lysosomes (labeled by LysoTracker® Red) were compared. […] In contrast, FITC-labeled transferrin and LysoTracker-Red co-localized extensively, which is consistent with the understanding that transferrin enters cells through receptor-mediated endocytosis (Figure 2c).
Figure 2 Mechanism of cell entry of CPP5s. a and b. […] Microscopic analysis of the co-localization of Fam-VPTLK with lysosome-staining dye (LysoTracker™ red DND-99, L7528 Invitrogen). Hela cells (a) and DAMI cells (b) were incubated with Fam-VPTLK (50 μM) and LysoTracker (100 nM) for 1 h at 37 °C. c. FITC-labeled Transferin (FITC-Transferin) co-localized with lysosome. HeLa cells were incubaled with FITC-transferin (100 nM) and LysoTracker (100 nM) for 1 h at 37 °C. d. […] Cells were incubated with peptides for 1 h and the cellular fluorescence intensity was measured by fluorescence microscopy equipped with image analysis software (for Fam-labeled peptides) or FACS (for Tamra-labeled peptides) as described in Experimental Procedures. […] The results are shown as percentages of the fluorescence intensity of inhibitor-treated cells (the intensity of non-treated cells is designated as 100%). […]

In series [2] the test system is HeLa cells. As to the kind of experiment: FACS analysis of cell penetration of Fam-VPTLK versus medium concentration. Conditions: 3 h, up to 1.6 mM in medium, triplicate samples. The format is cell-based. How it is done: For examination of the cell-penetrating activity of 5,6-carboxyfluorescein (Fam)-labeled CPP5 peptides (Fam-VPMLK, Fam-VPTLK), DAMI cells and HeLa cells (5.0×10^4 cells/mL) were incubated with different concentrations of Fam-labeled peptides for different time periods. Excess peptides were removed by extensive washing with Hanks’ buffered saline solution (HBSS) as previously reported and cellular entry of Fam-labeled peptides was analyzed using a fluorescence microscope (Nikon; TE200), a confocal scanning laser microscope (Leica; TCS SP2), and a FACS instrument (XL Aria), or a Coulter EPICS® XL-MCR.
(In flow cytometry, cells or beads pass a laser one at a time.)

Another series deals with DAMI cells. Kind of series: Cell-penetration activity of Fam-labeled CPP5s, cellular fluorescence by FACS and/or microscopy. The format is cell-based, human. Also noted: key to Cell Penetration, cell entry confirmed by microscopy only: Cell entry of some peptides was confirmed by microscopy only, and these peptides are indicated with a ‘+’ without a percentage value. Conditions: peptides Fam-labeled on the N-terminus, 200 μM, 3 h, 37 °C; for Cell Penetration, cell entry confirmed by microscopy only: intracellular fluorescent signal by microscopy, no comparison with KLPVM; for Cell Penetration (%), percentage of the activity of KLPVM: fluorescence intensity of cells by FACS, mean of triplicate samples. The method, then: Figure 1 Cell-penetration activity of CPP5s. a. List of cell-penetrating penta-peptides (CPP5s). […] Peptide sequences are color-coded to show the constant amphipathic amino acid arrangement in each CPP5. Cell-penetration activity was determined by fluorescence intensity of cells (DAMI cells: a human megakaryocytic cancer cell line) incubated with fluorescein (Fam)-labeled peptides (200 μM) for 3 h at 37 °C as described in Experimental Procedures. Fam was labeled on the N-terminus of all peptides examined. Cells were analyzed by FACS and/or microscopy. The activity of each peptide is shown as a percentage of the activity of KLPVM. Each value represents the mean of triplicate samples. Cell entry of some peptides was confirmed by microscopy only, and these peptides are indicated with a ‘+’ without a percentage value. For cytoprotective activity (right column), the information is based on previous studies and the activity was determined by the protection of cells from Bax overexpression and other apoptotic stimuli such as etoposide treatment. b to e. Cell entry of Fam-labeled VPTLK, KLPVM, TAT, and poly-arginine (R8). HeLa cells were incubated with Fam-labeled VPTLK, KLPVM (200 μM), Fam-TAT (10 μM), and Fam-R8 (10 μM) for 1 h at 37 °C. Images are at 20× magnification. f. Comparison of the cytotoxicity of CPP5 and TAT. Primary cultured mouse embryonic fibroblast (MEF) cells were treated with various concentrations of peptides for 24 h as indicated. Then, apoptosis was analyzed as described in Experimental Procedures. Each bar represents the mean of triplicate samples and standard error. TEXT PRINTED IN THE PICTURE: (a) VPMLK: Cell Penetration (%): 97 ± 4.3; Cytoprotection: + | (a) VPTLK: Cell Penetration (%): 61 ± 1.7; Cytoprotection: + | (a) VPALR: Cell Penetration (%): 79 ± 1.5; Cytoprotection: + | (a) VSALK: Cell Penetration (%): 90 ± 3; Cytoprotection: N.D. | (a) PMLKE: Cell Penetration (%): 65 ± 3.7; Cytoprotection: + | (a) VPALK: Cell Penetration (%): 71 ± 2.2; Cytoprotection: + | (a) VSLKK: Cell Penetration (%): +; Cytoprotection: - | (a) VSGKK: Cell Penetration (%): +; Cytoprotection: - | (a) KLPVM: Cell Penetration (%): 100 ± 2.3; Cytoprotection: - | (a) IPMIK: Cell Penetration (%): 47 ± 1.4; Cytoprotection: - | (a) KLGVM: Cell Penetration (%): +; Cytoprotection: - | (a) KLPVT: Cell Penetration (%): +; Cytoprotection: - | (a) VPMIK: Cell Penetration (%): +; Cytoprotection: N.D. | (a) IPALK: Cell Penetration (%): +; Cytoprotection: N.D. | (a) IPMLK: Cell Penetration (%): +; Cytoprotection: N.D. | (a) VPTLQ: Cell Penetration (%): 70 ± 4; Cytoprotection: - | (a) QLPVM: Cell Penetration (%): +; Cytoprotection: - | (a) ELPVM: Cell Penetration (%): +; Cytoprotection: - | (a) VPTLE: Cell Penetration (%): 80 ± 1.9; Cytoprotection: N.D.
CPP5s that were designed based on the Bax-binding domain of Ku70 of several species are named Bax-Inhibiting Peptides (BIPs); they are VPMLK, PMLKE, VPTLK, VPALR, and VPALK. VPMLK and PMLKE were designed from human Ku70, and the same sequence exists in the Ku70 homologues of dog and monkey. VPTLK and VPALR are based on mouse and rat Ku70, respectively. VPALK was designed from cattle Ku70, and the same sequence exists in Ku70 of the African clawed frog. Cytoprotective activities of these BIPs have been previously reported, both in cell culture and animal models. […] The observed variation in cell-entering activity of Fam-labeled-CPP5s is shown in Figure 1a as a percentage of the activity of KLPVM. In all cases, Fam was attached to the N-terminal amino acid. For some CPP5s, cell-penetration activity was confirmed by detection of an intracellular fluorescent signal by microscopy. These latter results are indicated with ‘+’ symbols, and a quantitative comparison with the activity of KLPVM was not performed. […]

Series [3] deals with Primary cultured mouse embryonic fibroblast (MEF) cells. Kind of series: Cytotoxicity (apoptosis, Hoechst nuclear staining) of CPP5 and TAT. The format is cell-based. How it is done: List of cell-penetrating penta-peptides (CPP5s). […] Peptide sequences are color-coded to show the constant amphipathic amino acid arrangement in each CPP5. […] Fam was labeled on the N-terminus of all peptides examined. Cells were analyzed by FACS and/or microscopy. The activity of each peptide is shown as a percentage of the activity of KLPVM. Each value represents the mean of triplicate samples. Cell entry of some peptides was confirmed by microscopy only, and these peptides are indicated with a '+' without a percentage value. For cytoprotective activity (right column), the information is based on previous studies and the activity was determined by the protection of cells from Bax overexpression and other apoptotic stimuli such as etoposide treatment. b to e. Cell entry of Fam-labeled […], and poly-arginine (R8). […] Comparison of the cytotoxicity of CPP5 and TAT. Primary cultured mouse embryonic fibroblast (MEF) cells were treated with various concentrations of peptides for 24 h as indicated. Then, apoptosis was analyzed as described in Experimental Procedures. Each bar represents the mean of triplicate samples and standard error.

Series [4] relates to HeLa cells. Kind of series: Effect of pinocytosis and endocytosis inhibitors on cell entry of Fam- or Tamra-labeled peptides. Format: cell-based. Conditions: serum-free DMEM, cytochalasin D 10 µM 30 min pre-treatment, then Tamra-labeled peptide 1 h, VPTLK 30 μM, R8 10 μM, FACS, mean of three experiments and standard error. How it is done:
HeLa cells were incubated with each inhibitor in serum-free DMEM for 30 min, followed by incubation for 1 h with Fam-labeled CPP5 peptides (30 μM). Then, the cells were extensively washed with Hanks’ Buffered Salt Solution (HBSS) and complete DMEM, prior to the detection of fluorescence by microscopy and FACS. None of amiloride, chlorpromazine, cytochalasin D, Filipin III, nocodazole and methyl-beta-cyclodextrin blocked the entry of Fam-labeled VPTLK and KLPVM into HeLa cells. […] As a control experiment to validate the effectiveness of these inhibitors, FITC-transferrin (for chlorpromazine) and rhodamine-labeled EGF (for cytochalasin D and amiloride) were used. […] To compare the cell-penetrating mechanism between CPP5s and arginine-rich CPPs, the uptake of TAT and R8 was also examined in the presence of these inhibitors.
Figure 2 Mechanism of cell entry of CPP5s. a and b. […] Cells were incubated with peptides for 1 h and the cellular fluorescence intensity was measured by fluorescence microscopy equipped with image analysis software (for Fam-labeled peptides) or FACS (for Tamra-labeled peptides) as described in Experimental Procedures. […] The results are shown as percentages of the fluorescence intensity of inhibitor-treated cells (the intensity of non-treated cells is designated as 100%). […]

Regarding `CSCC[C@H](NC(=O)[C@@H](NC(=O)[C@@H]1CCCN1C(=O)[C@H](CC(C)C)NC(=O)[C@H](CCCCN)NC(=O)c1ccc2c(c1)C(=O)OC21c2ccc(O)cc2Oc2cc(O)ccc21)C(C)C)C(=O)O` [Fam-KLPVM] (5FAM-KLPVM-OH), the “Entry into Jurkat cells” value with Jurkat cells is “able to enter Jurkat cells”.
On to `CC(C)C[C@H](NC(=O)[C@@H](NC(=O)[C@@H]1CCCN1C(=O)[C@@H](NC(=O)c1ccc2c(c1)C(=O)OC21c2ccc(O)cc2Oc2cc(O)ccc21)C(C)C)[C@@H](C)O)C(=O)N[C@@H](CCCCN)C(=O)O` [Fam-VPTLK] (5FAM-VPTLK-OH), for which, in series [1], the Co-localization with lysosomes entry is on record as “partially co-localizes with lysosomes”. Besides, the “Cell entry of Fam-VPTLK as a function of medium concentration” value with HeLa cells [2] is reported as “linear increase up to the maximum concentration examined”. Besides, in the series with Jurkat cells, the “Entry into Jurkat cells” value is listed as “able to enter Jurkat cells”.
As to “ELPVM [cell-penetrating penta-peptide (CPP5)]”, the “Cell Penetration, cell entry confirmed by microscopy only” value (“Cell Penetration, cell entry confirmed” for short) with DAMI cells was “+”.
Still for that read-out and setting: under “IPALK [cell-penetrating penta-peptide (CPP5)]” stands “+”.
Turning to “IPMIK [cell-penetrating penta-peptide (CPP5)]”, the “Cell Penetration (%), percentage of the activity of KLPVM” value (“Cell Penetration (%), percentage” for short) in the series with DAMI cells is 47 ± 1.4%.
With “IPMLK [cell-penetrating penta-peptide (CPP5)]”, the “Cell Penetration, cell entry confirmed” value in the series with DAMI cells is recorded as “+”.
Same read-out and setting: as for “KLGVM [cell-penetrating penta-peptide (CPP5)]”, the entry is “+”.
In the case of KLPVM, the “Cytotoxic effect at 1.6 mM in the cell culture medium” value in series [3] is listed as “did not show significant cytotoxic effects”. In addition, the “Cell Penetration (%), percentage” value with DAMI cells worked out at 100 ± 2.3%.
For the compound “KLPVT [cell-penetrating penta-peptide (CPP5)]”, the “Cell Penetration, cell entry confirmed” value in the series on DAMI cells was “+”.
With PMLKE, the “Cell Penetration (%), percentage” value in the series with DAMI cells is listed as 65 ± 3.7%.
For “QLPVM [cell-penetrating penta-peptide (CPP5)]”, the “Cell Penetration, cell entry confirmed” value in the series with DAMI cells is reported as “+”.
On to Tamra-VPTLK [Tamra-labeled VPTLK], for which the “Relative Fluorescence Intensity (No Inhibitor=100%), Cytochalasin D, Tamra-labeled peptides” value with HeLa cells [4] is given as 57±4%.
On to VPALK, for which the “Cell Penetration (%), percentage” value in the series on DAMI cells is on record as 71 ± 2.2%.
On the same count and under the same terms, as for VPALR, the figure is 79 ± 1.5%.
For the compound “VPMIK [cell-penetrating penta-peptide (CPP5)]”, in the series on DAMI cells, the “Cell Penetration, cell entry confirmed” value is “+”.
For VPMLK, in the series on DAMI cells, the “Cell Penetration (%), percentage” value is recorded as 97 ± 4.3%.
On the same count and under the same terms, as for “VPTLE [cell-penetrating penta-peptide (CPP5)]”, the figure is 80 ± 1.9%; as for “VPTLQ [cell-penetrating penta-peptide (CPP5)]”, 70 ± 4%; as for “VSALK [cell-penetrating penta-peptide (CPP5)]”, 90 ± 3%.
As to “VSGKK [cell-penetrating penta-peptide (CPP5)]”, the “Cell Penetration, cell entry confirmed” value in the series with DAMI cells is “+”.
“VSLKK [cell-penetrating penta-peptide (CPP5)]”: the “Cell Penetration, cell entry confirmed” value with DAMI cells is “+”.
